Measurements published in ChEMBL document CHEMBL1137292, “Synthesis and activity of a folate peptide camptothecin prodrug” (Bioorg Med Chem Lett, 2006).
pIC50: −log10 of the molar value. Starred links: 1 amine or outer side, 2 acyl side, 3 side chain; linkers in the order of their positions; H or OH if unused. Residues, ends and D or L forms follow the SMILES beside them. *: point of attachment. S(CH2)2OCO2(CPT-20-yl) = CC[C@@]1(OC(=O)OCCS*)C(=O)OCc2c1cc1n(c2=O)Cc2cc3ccccc3nc2-1; Pteroyl = Nc1nc2ncc(CNc3ccc(C(=O)*)cc3)nc2c(=O)[nH]1; γGlu = O=C(O)[C@H](CCC(=O)[*:2])N[*:1]

Key:
KB = test: Antiproliferative activity against human KB cells expressing FR in presence of folic acid after 72 hrs by [3H]thymidine incorporation assay; assay type: functional, cell-based
[1] = molecular target: Folate receptor alpha (Homo sapiens) (UniProt P15328); test: Displacement of [3H]folic acid from human folate receptor expressed in KB cells relative to folic acid; assay type: cell-based
Sequence of Folate receptor alpha (Homo sapiens) (P15328 25-234 limits assumed): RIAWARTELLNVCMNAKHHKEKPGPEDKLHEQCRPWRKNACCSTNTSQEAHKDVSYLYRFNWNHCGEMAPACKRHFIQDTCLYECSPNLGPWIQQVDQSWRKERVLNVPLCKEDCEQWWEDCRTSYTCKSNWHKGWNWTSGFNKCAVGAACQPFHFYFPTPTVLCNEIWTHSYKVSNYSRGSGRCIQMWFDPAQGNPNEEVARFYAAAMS

CC[C@@]1(OC(=O)OCCSSC[C@H](NC(=O)[C@H](CC(=O)O)NC(=O)[C@H](CC(=O)O)NC(=O)[C@H](CCCNC(=N)N)NC(=O)[C@H](CC(=O)O)NC(=O)CC[C@H](NC(=O)c2ccc(NCc3cnc4nc(N)[nH]c(=O)c4n3)cc2)C(=O)O)C(=O)O)C(=O)OCc2c1cc1n(c2=O)Cc2cc3ccccc3nc2-1 ({Pteroyl-γGlu}-DRDDC(S(CH2)2OCO2(CPT-20-yl))-OH)
pIC50 (KB): 8.00
relative binding affinity (RBA) [1]: 0.44
